How the values were obtained:
Cullex pipiens pallens = assay: whole plant or invertebrate; conditions: 24 h
Method: In 100 ml of ion-exchanged water, the test liquid had been prepared as described above, was added dropwise in an amount of 0.7 ml (the concentration of active ingredient was 3.5 ppm). Twenty final-instar larvae of Cullex pipiens pallens (common mosquito) were set free in the solution. After 1 days, their survival was examined to determine the mortality.

Musca domestics = assay: Pesticidal test against Musca domestics, treated filter paper with sucrose bait (Test Example 5); type: in vivo; conditions: 500 ppm test liquid (Formulation Example 5), 0.7 ml on filter paper, ten female adults, after 24 hours
Method: Ten female adults of Musca domestics (house fly) were set free in the polyethylene cup, which was then kept covered. After 24 hours, their survival was examined to determine the mortality.

German cockroach = assay: Pesticidal test against German cockroach, treated filter paper with sucrose bait (Test Example 6); type: in vivo; conditions: Blattella germanica, 144 h; 500 ppm test liquid (Formulation Example 5), 0.7 ml on filter paper; two male adults; after 6 days
Source text: Two male adults of German cockroach (Blattalla germanica) were set free in the polyethylene cup, which was then kept covered. After 6 days, their survival was examined to determine the mortality.

| SMILES | mortality at 3.5 µg/mL (Cullex pipiens pallens) [%] | mortality at 500 ppm (Musca domestics) [%] | mortality at 500 ppm (German cockroach) [%] |
| --- | --- | --- | --- |
| C=CCCC(C#N)(C#N)Cc1ccc(C#N)cc1 [Compound 6, 2-(3-butenyl)-2-(4-cyanobenzyl)malononitrile] | 100 |  |  |
| C=CCCCC(C#N)(C#N)Cc1ccc(C#N)cc1 [Compound 7, 2-(4-cyanobenzyl)-2-(4-pentenyl)malononitrile] | 100 |  |  |
| C=CCC(C#N)(C#N)Cc1ccc(Br)cc1 [Compound 13, 2-allyl-2-(4-bromobenzyl)malononitrile] | 100 |  |  |
| CC(C)=CCC(C#N)(C#N)Cc1ccc(Cl)cc1 [Compound 25, 2-(4-chlorobenzyl)-2-(3-methyl-2-butenyl)malononitrile] | 100 |  |  |
| CC(C)=CCC(C#N)(C#N)Cc1ccc(OC(F)(F)F)cc1 [Compound 27, 2-(3-methyl-2-butenyl)-2-(4-(trifluoromethoxy)benzyl)malononitrile] | 100 |  |  |
| C=CCC(C#N)(C#N)Cc1cccc(OC)c1 [Compound 28, 2-allyl-2-(3-methoxybenzyl)malononitrile] | 100 |  |  |
| C=CCC(C#N)(C#N)Cc1ccc(OC)cc1 [Compound 29, 2-allyl-2-(4-methoxybenzyl)malononitrile] | 100 |  |  |
| C#CCC(C#N)(C#N)C(C=C)c1ccc(OC(F)(F)F)cc1 (stereo not drawn) [Compound 34, 2-(2-propynyl)-2-(1-(4-(trifluoromethoxy)phenyl)-2-propenyl)malononitrile] | 100 | 100 |  |
| C=CCCC(C#N)(C#N)Cc1ccc(OC(F)(F)Br)cc1 [Compound 35, 2-(3-butenyl)-2-(4-(bromodifluoromethoxy)benzyl)malononitrile] | 100 | 100 |  |
| C=CCCC(C#N)(C#N)Cc1ccc(OCC=C)cc1 [Compound 38, 2-(3-butenyl)-2-(4-(2-propenyloxy)benzyl)malononitrile] | 100 |  |  |
| C=CCC(C#N)(C#N)Cc1ccc(OCC)cc1 [Compound 44, 2-allyl-2-(4-ethoxybenzyl)malononitrile] | 100 |  |  |
| CC(C)CCC(C#N)(C#N)Cc1ccc(OC(F)(F)F)cc1 [Compound 45, 2-(3-methylbutyl)-2-(4-(trifluoromethoxy)benzyl)malononitrile] | 100 | 100 |  |
| C=CCC(C#N)(C#N)C(C)(C)c1cccc(Cl)c1 [Compound 48, 2-allyl-2-(1-(3-chlorophenyl)-1-methylethyl)malononitrile] | 100 |  |  |
| C=CCC(C#N)(C#N)Cc1c(Cl)cccc1Cl [Compound 54, 2-allyl-2-(2,6-dichlorobenzyl)malononitrile] | 100 |  |  |
| C=CCC(C#N)(C#N)Cc1ccc(S(C)(=O)=O)cc1 [Compound 61, 2-allyl-2-(4-(methylsulfonyl)benzyl)malononitrile] | 100 |  |  |
| C=CCC(C#N)(C#N)Cc1ccc(C(F)(F)F)cc1[N+](=O)[O-] [Compound 63, 2-allyl-2-(2-nitro-4-(trifluoromethyl)benzyl)malononitrile] | 100 |  |  |
| C=CCCC(C#N)(C#N)Cc1c(Cl)cc(C(F)(F)F)cc1Cl [Compound 65, 2-(3-butenyl)-2-(2,6-dichloro-4-(trifluoromethyl)benzyl)malononitrile] | 100 | 100 |  |
| C=CCCC(C#N)(C#N)Cc1ccc(C(F)(F)F)cc1[N+](=O)[O-] [Compound 67, 2-(3-butenyl)-2-(2-nitro-4-(trifluoromethyl)benzyl)malononitrile] | 100 | 100 |  |
| C=CCC(C#N)(C#N)Cc1ccc(SC)cc1 [Compound 70, 2-allyl-2-(4-(methylthio)benzyl)malononitrile] | 100 |  |  |
| CCCC(C#N)(C#N)Cc1ccc(C(F)(F)F)cc1 [Compound 71, 2-propyl-2-(4-(trifluoromethyl)benzyl)malononitrile] | 100 | 100 |  |
| CCC(C#N)(C#N)Cc1ccc(C(F)(F)F)cc1 [Compound 75, 2-ethyl-2-(4-(trifluoromethyl)benzyl)malononitrile] | 100 | 100 |  |
| C=CCCC(C#N)(C#N)Cc1ccc(OC(C)=O)cc1 [Compound 78, 2-(3-butenyl)-2-(4-(acetyloxy)benzyl)malononitrile] | 100 |  |  |
| C=CCCC(C#N)(C#N)Cc1ccc(OC(F)(F)C(F)F)cc1 [Compound 80, 2-(3-butenyl)-2-(4-(1,1,2,2-tetrafluoroethoxy)benzyl)malononitrile] | 100 |  |  |
| C=CCCC(C#N)(C#N)Cc1ccc(OCC(F)(F)F)cc1 [Compound 81, 2-(3-butenyl)-2-(4-(2,2,2-trifluoroethoxy)benzyl)malononitrile] | 100 |  |  |
| C=CCC(C#N)(C#N)C(OCC)c1ccc(OC(F)(F)F)cc1 (stereo not drawn) [Compound 82, 2-allyl-2-(4-(trifluoromethoxy)-α-ethoxybenzyl)malononitrile] | 100 | 100 |  |

| SMILES | mortality at 3.5 µg/mL (Cullex pipiens pallens) [%] | mortality at 500 ppm (Musca domestics) [%] | mortality at 500 ppm (German cockroach) [%] |
| --- | --- | --- | --- |
| C=CCC(C#N)(C#N)C(OC)c1ccc(C#N)cc1 (stereo not drawn) [Compound 83, 2-allyl-2-(4-cyano-α-methoxybenzyl)malononitrile] | 100 |  |  |
| C=CCCC(C#N)(C#N)Cc1cccc(OC(F)(F)F)c1 [Compound 90, 2-(3-butenyl)-2-(3-(trifluoromethoxy)benzyl)malononitrile] |  | 100 |  |
| C=CCC(C#N)(C#N)C(C#N)c1ccc(OC)cc1 (stereo not drawn) [Compound 91, 2-allyl-2-(4-methoxy-α-cyanobenzyl)malononitrile] | 100 |  |  |
| C=CCC(C#N)(C#N)C(C#N)c1ccc(C)cc1 (stereo not drawn) [Compound 92, 2-allyl-2-(4-methyl-α-cyanobenzyl)malononitrile] | 100 | 100 |  |
| C=CCC(C#N)(C#N)Cc1ccc(C(C)=O)cc1 [Compound 97, 2-(4-acetylbenzyl)-2-allylmalononitrile] | 100 |  |  |
| C=CCCC(C#N)(C#N)Cc1ccc(OCC)cc1 [Compound 98, 2-(3-butenyl)-2-(4-ethoxybenzyl)malononitrile] | 100 |  |  |
| C=CCCC(C#N)(C#N)Cc1ccc(OCCC)cc1 [Compound 99, 2-(3-butenyl)-2-(4-propoxybenzyl)malononitrile] | 100 |  |  |
| C=CCCC(C#N)(C#N)Cc1ccc(OC(C)C)cc1 [Compound 100, 2-(3-butenyl)-2-(4-isopropoxybenzyl)malononitrile] | 100 |  |  |
| C=CCC(C#N)(C#N)Cc1ccc(CC)cc1 [Compound 101, 2-allyl-2-(4-ethylbenzyl)malononitrile] | 100 | 100 |  |
| C=CCC(C#N)(C#N)C(c1ccc(OC(F)(F)F)cc1)C(C)(C)C (stereo not drawn) [Compound 103, 2-allyl-2-(1-(4-(trifluoromethoxy)phenyl)-2,2-dimethylpropyl)malononitrile] | 100 |  |  |
| CCCCCC(C#N)(C#N)Cc1ccc(C(F)(F)F)cc1 [Compound 104, 2-pentyl-2-(4-(trifluoromethyl)benzyl)malononitrile] | 100 |  |  |
| CC(C)CCC(C#N)(C#N)Cc1ccc(C(F)(F)F)cc1 [Compound 105, 2-(3-methylbutyl)-2-(4-(trifluoromethyl)benzyl)malononitrile] | 100 | 100 |  |
| CC(C)=CCC(C#N)(C#N)Cc1ccc(C(F)(F)F)cc1 [Compound 106, 2-(3-methyl-2-butenyl)-2-(4-(trifluoromethyl)benzyl)malononitrile] | 100 |  |  |
| CC=CCC(C#N)(C#N)Cc1ccc(C(F)(F)F)cc1 [Compound 107, 2-(2-butenyl)-2-(4-(trifluoromethyl)benzyl)malononitrile] | 100 | 100 |  |
| C=C(C)CC(C#N)(C#N)Cc1ccc(C(F)(F)F)cc1 [Compound 108, 2-(2-methyl-2-propenyl)-2-(4-(trifluoromethyl)benzyl)malononitrile] | 100 | 100 |  |
| CCC(C)C(C#N)(C#N)Cc1ccc(C(F)(F)F)cc1 (stereo not drawn) [Compound 111, 2-(1-methylpropyl)-2-(4-(trifluoromethyl)benzyl)malononitrile] | 100 | 100 |  |
| CCCC(C)C(C#N)(C#N)Cc1ccc(C(F)(F)F)cc1 (stereo not drawn) [Compound 112, 2-(1-methylbutyl)-2-(4-(trifluoromethyl)benzyl)malononitrile] | 100 |  |  |
| CCCCC(C)C(C#N)(C#N)Cc1ccc(C(F)(F)F)cc1 (stereo not drawn) [Compound 113, 2-(1-methylpentyl)-2-(4-(trifluoromethyl)benzyl)malononitrile] | 100 |  |  |
| C=CCC(C#N)(C#N)Cc1cccc(F)c1F [Compound 114, 2-allyl-2-(2,3-difluorobenzyl)malononitrile] |  | 100 | 100 |
| C=CCC(C#N)(C#N)Cc1ccc(OC(C)CC)cc1 (stereo not drawn) [Compound 115, 2-allyl-2-(4-(2-butyloxy)benzyl)malononitrile] | 100 | 100 |  |
| C=CCC(C#N)(C#N)Cc1ccc(F)c(Oc2ccccc2)c1 [Compound 116, 2-allyl-2-(4-fluoro-3-phenoxybenzyl)malononitrile] | 100 |  |  |
| C=CCC(C#N)(C#N)Cc1cccc(Oc2ccccc2)c1 [Compound 118, 2-allyl-2-(3-phenoxybenzyl)malononitrile] | 100 |  |  |
| C=CCC(C#N)(C#N)Cc1ccc(Oc2cccc(C)c2)cc1 [Compound 119, 2-allyl-2-(4-(m-tolyloxy)benzyl)malononitrile] |  |  | 100 |
| C=CCC(C#N)(C#N)Cc1ccc(Oc2ccc(Cl)cc2)cc1 [Compound 121, 2-allyl-2-(4-(p-chlorophenoxy)benzyl)malononitrile] | 100 |  | 100 |
